This note sets out measurements from US20180186742A1, “PICOLINAMIDES AS FUNGICIDES” (Dow AgroSciences LLC, priority 2017, published 2018).

What all share (format): in vivo
For assay [1], the system named is Puccinia triticina. Put plainly: Wheat brown rust (PUCCRT), disease control on wheat seedlings. The following applies: for pest or weed control at 100 ppm: high volume application at 100 ppm; for pest or weed control at 121.5 g/ha: low volume application at 121.5 g/H. Summed up:
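Compounds in acetone, diluted with nine volumes of water containing 110 ppm Triton X-100, sprayed to run-off on first-leaf Yuma wheat seedlings; track-spray tests used EC formulations with 0.1% Trycol 5941. Puccinia triticina spores applied before or after treatment. Overnight dark dew room at 22° C, 100% humidity, then greenhouse at 24° C.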

For assay [2], the system named is Phakopsora pachyrhizi. Put plainly: Asian soybean rust (PHAKPA), disease control on soybean seedlings. The following applies: High volume application at 25 ppm. As to the method:
Technical grades of materials were dissolved in acetone, which were then mixed with nine volumes of water containing 0.011% Tween 20. The fungicide solutions were applied onto soybean seedlings using an automated booth sprayer to run-off. All sprayed plants were allowed to air dry prior to further handling.
Soybean plants (variety Williams 82) were grown in soil-less Metro mix, with one plant per pot. Two week old seedlings were used for testing. Plants were inoculated either 3 days prior to or 1 day after fungicide treatments. Plants were incubated for 24 h in a dark dew room at 22° C. and 100% relative humidity then transferred to a growth room at 23° C. for disease to develop. Disease severity was assessed on the sprayed leaves.

In assay [3] the test system is Zymoseptoria tritici. Kind of assay: Leaf blotch of wheat (SEPTTR), disease control on wheat seedlings. The conditions noted are these: for pest or weed control at 100 ppm: high volume application at 100 ppm; for pest or weed control at 121.5 g/ha: low volume application at 121.5 g/H. Summed up: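 Z. tritici spores were inoculated onto wheat seedlings (Yuma, first leaf emerged) either before or after treatment. Treatment was an automated spray to run-off of acetone/Triton X-100 water solutions, or a track spray of EC formulations with 0.1% Trycol 5941. Plants were held in dew chambers at 20 °C and then a greenhouse at 20 °C. First-leaf severity (0–100%) was converted to percent control against untreated plants.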

The mark [4] stands for this setting: 24 h, 1 Day Protectant, read-out: PUCCRT disease control, 1DP, HV activity.
Where [5] appears, read: 24 h, 1 Day Protectant, read-out: PUCCRT disease control, 1DP, LV activity.
The mark [6] stands for this setting: 72 h, 3 Day Curative, read-out: PUCCRT disease control, 3DC, HV activity.
[7] abbreviates: 72 h, 3 Day Curative, read-out: PUCCRT disease control, 3DC, LV activity.
Setting [8] is: 24 h, 1 Day Protectant, read-out: PHAKPA 1DP disease control rating.
Setting [9] is: 72 h, 3 Day Curative, read-out: PHAKPA 3DC disease control rating.
Where [10] appears, read: 24 h, 1 Day Protectant, read-out: SEPTTR disease control, 1DP, HV activity.
[11] abbreviates: 24 h, 1 Day Protectant, read-out: SEPTTR disease control, 1DP, LV activity.
The mark [12] stands for this setting: 72 h, 3 Day Curative, read-out: SEPTTR disease control, 3DC, HV activity.
[13] abbreviates: 72 h, 3 Day Curative, read-out: SEPTTR disease control, 3DC, LV activity.

Structures are written as SMILES. Read-outs that look alike come from different tables or passages of the source.

Take `COc1cc[n+]([O-])c(C(=O)N[C@@H](C)C(=O)O[C@@H](C)[C@@H](c2ccc(C)cc2C)C2CCCC2)c1O` [Compound 212]: the pest or weed control at 100 ppm is above 80% in assay [1] (setting [4]), below 80% in assay [1] (setting [6]), below 80% in assay [3] (setting [10]) and above 80% in assay [3] (setting [12]). The pest or weed control at 121.5 g/ha was below 80% in assay [1] (setting [5]), below 0% in assay [1] (setting [7]), below 0% in assay [3] (setting [11]) and below 0% in assay [3] (setting [13]). The pest or weed control at 25 ppm in assay [2] (setting [8]) and in assay [2] (setting [9]) was below 80% in each case.

Consider `COc1ccnc(C(=O)N[C@@H](C)C(=O)O[C@@H](C)[C@@H](c2ccc(F)cc2F)C(C)C)c1OC(C)=O` [Compound 368], for which the pest or weed control at 121.5 g/ha in assay [1] (24 h, 1 Day Protectant, wheat brown rust, read-out: PUCCRT 1DP disease control, LV activity) was below 80%; in assay [1] (72 h, 3 Day Curative, wheat brown rust, read-out: PUCCRT 3DC disease control, LV activity) it was below 0%; in assay [3] (24 h, 1 Day Protectant, wheat leaf blotch, read-out: SEPTTR 1DP disease control, LV activity) it was below 80%; in assay [3] (72 h, 3 Day Curative, wheat leaf blotch, read-out: SEPTTR 3DC disease control, LV activity), below 80%. Also, the pest or weed control at 25 ppm in assay [2] (setting [8]) and in assay [2] (setting [9]) was below 80% each time.

In the case of `COCCC(=O)Oc1c(OC)ccnc1C(=O)N[C@H](C(=O)O[C@@H](C)[C@H](c1ccc(F)cc1C)C(C)C)C(C)C` [Compound 351], the pest or weed control at 121.5 g/ha in assay [1] (setting [5]) is above 80%; in assay [1] (setting [7]), below 80%; in assay [3] (setting [11]), above 80%; in assay [3] (setting [13]) it was below 80%. Besides, the pest or weed control at 25 ppm is above 80% in assay [2] (setting [8]) and below 80% in assay [2] (setting [9]).

As to `COc1cc[n+]([O-])c(C(=O)N[C@@H](C)C(=O)O[C@@H](C)[C@@H](c2ccc(C)cc2C)C(C)C)c1O` [Compound 211], the pest or weed control at 100 ppm was below 80% in assay [1] (setting [4]), below 0% in assay [1] (setting [6]), below 80% in assay [3] (setting [10]) and below 80% in assay [3] (setting [12]). Moreover, the pest or weed control at 121.5 g/ha in assay [1] (setting [5]) is below 0%; in assay [1] (setting [7]), below 0%; in assay [3] (setting [11]), below 80%; in assay [3] (setting [13]) it was below 0%. In addition, the pest or weed control at 25 ppm in assay [2] (setting [8]) is below 80%; in assay [2] (setting [9]), below 0%.

In the case of `COc1ccnc(C(=O)N[C@@H](C)C(=O)O[C@@H](C)[C@H](c2ccc(F)cc2C)C(C)C)c1OCOC(C)=O` [Compound 215], the pest or weed control at 121.5 g/ha in assay [1] (setting [5]), in assay [1] (setting [7]), in assay [3] (setting [11]) and in assay [3] (setting [13]) was above 80% throughout. Further, the pest or weed control at 25 ppm in assay [2] (setting [8]) and in assay [2] (setting [9]) was above 80% each time.

For the compound `COc1cc(F)ccc1[C@H](C1CCC1)[C@H](C)OC(=O)[C@H](C)NC(=O)c1nccc(OC)c1OC(C)=O` [Compound 231], the pest or weed control at 121.5 g/ha in assay [1] (setting [5]), in assay [1] (setting [7]), in assay [3] (setting [11]) and in assay [3] (setting [13]) was below 80% throughout. The figures for the pest or weed control at 25 ppm in assay [2] (setting [8]) and in assay [2] (setting [9]) were above 80% and below 80%, respectively.

On to `CCC(C)[C@H](c1ccc(C)cc1C)[C@H](C)OC(=O)[C@H](C)NC(=O)c1nccc(OC)c1OCOC(C)=O` (some centres unmarked) [Compound 207], for which the pest or weed control at 121.5 g/ha in assay [1] (setting [5]) is above 80%; in assay [1] (setting [7]), below 80%; in assay [3] (setting [11]), below 80%; in assay [3] (setting [13]), above 80%. Besides, the values for the pest or weed control at 25 ppm in assay [2] (setting [8]) and in assay [2] (setting [9]) were above 80% and below 0%, respectively.

With `COc1ccnc(C(=O)N[C@@H](C)C(=O)O[C@@H](C)[C@@H](c2ccc(F)cc2C)C2CCCCC2)c1OCOC(C)=O` [Compound 194], the pest or weed control at 121.5 g/ha in assay [1] (setting [5]) was below 80%; in assay [1] (setting [7]), below 0%; in assay [3] (setting [11]), below 80%; in assay [3] (setting [13]) it was above 80%. For the same compound, the pest or weed control at 25 ppm in assay [2] (setting [8]) and in assay [2] (setting [9]) was below 80% in each case.

With `COc1ccnc(C(=O)N[C@@H](C)C(=O)O[C@@H](C)[C@@H](c2ccc(F)cc2C)C2CCCC2)c1OC(C)=O` [Compound 180], the pest or weed control at 121.5 g/ha in assay [1] (setting [5]) was above 80%; in assay [1] (setting [7]), below 80%; in assay [3] (setting [11]) it was below 80%; in assay [3] (setting [13]) it was below 80%. Besides, the pest or weed control at 25 ppm in assay [2] (setting [8]) and in assay [2] (setting [9]) was below 80% in each case.

In the case of `COc1ccnc2c(=O)n([C@@H](C)C(=O)O[C@@H](C)[C@@H](c3ccc(C)cc3C)C3CCCCC3)c(=O)oc12` [Compound 210], the pest or weed control at 121.5 g/ha in assay [1] (setting [5]) is below 80%; in assay [1] (setting [7]), below 0%; in assay [3] (setting [11]), above 80%; in assay [3] (setting [13]), below 80%. The pest or weed control at 25 ppm in assay [2] (setting [8]) and in assay [2] (setting [9]) was below 80% in each case.

For the compound `COc1cc(F)ccc1[C@@H](C(C)C)[C@H](C)OC(=O)[C@H](C)NC(=O)c1nccc(OC)c1OC(C)=O` [Compound 221], the pest or weed control at 121.5 g/ha in assay [1] (setting [5]) is below 80%; in assay [1] (setting [7]), below 80%; in assay [3] (setting [11]), below 80%; in assay [3] (setting [13]) it was above 80%. In addition, the pest or weed control at 25 ppm in assay [2] (setting [8]) and in assay [2] (setting [9]) was below 80% in each case.

Consider `COc1cc(F)ccc1[C@@H](C1CCCC1)[C@H](C)OC(=O)[C@H](C)NC(=O)c1nccc(OC)c1OC(C)=O` [Compound 224], for which the pest or weed control at 121.5 g/ha in assay [1] (setting [5]) is below 80%; in assay [1] (setting [7]) it was below 80%; in assay [3] (setting [11]) it was below 80%; in assay [3] (setting [13]) it was below 0%. The values for the pest or weed control at 25 ppm in assay [2] (setting [8]) and in assay [2] (setting [9]) were below 80% and below 0%, respectively.

For `CCC(CC)[C@@H](c1ccc(F)cc1OC)[C@H](C)OC(=O)[C@H](C)NC(=O)c1nccc(OC)c1OC(C)=O` [Compound 229], the pest or weed control at 121.5 g/ha is above 80% in assay [1] (setting [5]), below 80% in assay [1] (setting [7]), above 80% in assay [3] (setting [11]) and above 80% in assay [3] (setting [13]). The values for the pest or weed control at 25 ppm in assay [2] (setting [8]) and in assay [2] (setting [9]) were above 80% and below 80%, respectively.

As for `COc1ccnc(C(=O)N[C@@H](C)C(=O)O[C@@H](C)[C@H](c2ccc(C)c(F)c2)C(C)C)c1OC(C)=O` [Compound 243], the pest or weed control at 121.5 g/ha in assay [1] (setting [5]) is above 80%; in assay [1] (setting [7]) it was below 80%; in assay [3] (setting [11]), below 0%; in assay [3] (setting [13]), below 80%. Further, the results for the pest or weed control at 25 ppm in assay [2] (setting [8]) and in assay [2] (setting [9]) were above 80% and below 80%, respectively.

`COc1ccnc(C(=O)N[C@H](C(=O)O[C@@H](C)[C@H](c2ccc(F)cc2C)C(C)C)C(C)C)c1OC(C)=O` [Compound 347]: the pest or weed control at 121.5 g/ha is above 80% in assay [1] (setting [5]), below 80% in assay [1] (setting [7]), above 80% in assay [3] (setting [11]) and above 80% in assay [3] (setting [13]). Further, the pest or weed control at 25 ppm in assay [2] (setting [8]) and in assay [2] (setting [9]) was above 80% each time.

Take `CCC(C)[C@H](c1ccc(C)cc1C)[C@H](C)OC(=O)[C@H](C)NC(=O)c1c(O)c(OC)cc[n+]1[O-]` (some centres unmarked) [Compound 213]: the pest or weed control at 121.5 g/ha was below 80% in assay [1] (setting [5]), below 0% in assay [1] (setting [7]), below 80% in assay [3] (setting [11]) and below 80% in assay [3] (setting [13]). In addition, the pest or weed control at 25 ppm in assay [2] (setting [8]) and in assay [2] (setting [9]) was below 0% in each case.

Regarding `COc1ccnc(C(=O)N[C@@H](C)C(=O)O[C@@H](C)[C@H](c2cc(C)ccc2C)C(C)C)c1OC(C)=O` [Compound 358], the pest or weed control at 121.5 g/ha in assay [1] (setting [5]) is above 80%; in assay [1] (setting [7]), below 80%; in assay [3] (setting [11]) it was below 80%; in assay [3] (setting [13]) it was below 80%. The pest or weed control at 25 ppm in assay [2] (setting [8]) was above 80%; in assay [2] (setting [9]) it was below 80%.
